# Reference: article PMC5779714, “Metallochaperone UreG serves as a new target for design of urease inhibitor: A novel strategy for development of antimicrobials” (PLoS Biology, 2018)
# Values joined by “and” are separate entries in the source; they are usually repeats but may differ in a detail not shown here. Equal entries are not always repeated. Where two headings read alike, the source gives them in different places.
# Assays:
# H. pylori = test: Growth of H. pylori in neutral and acidic brucella broth (OD600); type: cell-based
# UreG [1] = molecular target: T1, UreG (Helicobacter pylori, UniProt Q09066); test: biochemical; type: binding, H. pylori
# T1 sequence (Q09066 whole entry): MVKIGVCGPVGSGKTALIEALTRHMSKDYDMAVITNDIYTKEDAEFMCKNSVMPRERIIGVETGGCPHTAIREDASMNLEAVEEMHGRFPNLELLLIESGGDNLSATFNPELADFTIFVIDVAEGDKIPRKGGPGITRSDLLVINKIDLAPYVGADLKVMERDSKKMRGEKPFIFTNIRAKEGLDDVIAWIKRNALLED
# UreG [2] = molecular target: T1, UreG; test: Fluorescence-quenching titration of UreG (Kd); type: binding, H. pylori
# Description: Using the relation between the emission intensity at 310 nm and molecule-UreG–bound species, as well as one site-binding model, the Kd values were calculated by a logistic regression model referring to a previous report. […] All fluorescence readings were corrected for the dilution effect.
# UreG [3] = molecular target: T1, UreG; test: Nickel binding of UreG (UV absorption at 337 nm) in presence of compounds; set-up: species or system H. pylori
# Description: We further investigated whether binding of cmpd4 or cmpd8 to the guanine nucleotide binding pocket perturbed the Ni(II) coordination to the protein. Considering that coordination of Ni(II) to UreG results in a (Cys)→Ni(II) LMCT band centered at about 337 nm, we monitored the UV absorption of UreG samples (5 μM) at 337 nm upon titration of nickel with or without the supplement of cmpd4 or cmpd8. As shown in S19 Fig, cmpd4 at a ratio of [cmpd4]/[UreG] of 5 and 10 reduced the percentages of Ni(II)-bound UreG to ca. 75% and 30%, respectively, and a similar phenomenon was also observed for cmpd8 (S19 Fig), indicative of the disruption of nickel binding property of UreG through targeting nucleotide binding site.
# Supplementary file pbio.2003887.s021.png: S19 Fig Effect of cmpd4 and cmpd8 on nickel binding property of UreG. UreG (5 μM) in HEPES buffer (5 μM GTP, 1 mM MgSO4) was titrated with NiSO4 in the presence of cmpd4 or cmpd8 at various concentrations. Titration of nickel ion into UreG samples led to the increasing of absorption at 337 nm, the highest of which was set as 100% for the percentage of Ni-bound UreG. The supplement of cmpd4 and cmpd8 reduced the percentage of Ni-bound UreG. […] (PNG) Click here for additional data file.
# [4] = system: AGS cells exposed to H. pylori; test: Cell infection model: AGS cells exposed to H. pylori pre-cultured with inhibitors; type: cell-based, human
# [5] = system: AGS cells with H. pylori infection; test: AGS cells with H. pylori infection, inhibitors administrated to the AGS cells (S20 Fig); type: cell-based, human; conditions: 10 μM administrated to AGS cells with H. pylori infection
# Text: As expected, low viability of AGS with the supplement of cmpd4 and cmpd8 was observed due to the toxicity of small compounds to mammalian cells. […] (PNG) Click here for additional data file.
smiles,measurement,setting,value
O=C(Cn1c2ccccc2c(=O)c2ccccc21)N/N=C/c1cc([N+](=O)[O-])ccc1N1CCCCCC1 [cmpd8],OD600(pH5),H. pylori; pH 5,0.47
same,OD600 (pH7),H. pylori; pH 7,0.116
same,Normalized fluo,UreG [1],1.54
same,Normalized fluo,"UreG [1]; UreG + compound 50μM, Temperature 30.19",6.82
same,Normalized fluo,"UreG [1]; UreG + compound 50μM, Temperature 30.56",5.74
same,Normalized fluo,"UreG [1]; UreG + compound 50μM, Temperature 30.94",4.76
same,Normalized fluo,"UreG [1]; UreG + compound 50μM, Temperature 31.33",4.03
same,Normalized fluo,"UreG [1]; UreG + compound 50μM, Temperature 31.72",3.29
same,Normalized fluo,"UreG [1]; UreG + compound 50μM, Temperature 32.09",2.61
same,Normalized fluo,"UreG [1]; UreG + compound 50μM, Temperature 32.47",2.02
same,Normalized fluo,"UreG [1]; UreG + compound 50μM, Temperature 32.85",1.65
same,Normalized fluo,"UreG [1]; UreG + compound 50μM, Temperature 33.30",1.24
same,Normalized fluo,"UreG [1]; UreG + compound 50μM, Temperature 33.65",0.72
same,Normalized fluo,"UreG [1]; UreG + compound 50μM, Temperature 34.08",0.51
same,Normalized fluo,"UreG [1]; UreG + compound 50μM, Temperature 34.47",0.31
same,Normalized fluo,"UreG [1]; UreG + compound 50μM, Temperature 34.84",0.0654
same,Normalized fluo,"UreG [1]; UreG + compound 50μM, Temperature 35.21",0.00
same,Normalized fluo,"UreG [1]; UreG + compound 50μM, Temperature 35.58",0.22
same,Normalized fluo,"UreG [1]; UreG + compound 50μM, Temperature 35.96",0.34
same,Normalized fluo,"UreG [1]; UreG + compound 50μM, Temperature 36.34",0.64
same,Normalized fluo,"UreG [1]; UreG + compound 50μM, Temperature 36.71",0.86
same,Normalized fluo,"UreG [1]; UreG + compound 50μM, Temperature 37.48",2.00
same,Normalized fluo,"UreG [1]; UreG + compound 50μM, Temperature 37.86",2.40
same,Normalized fluo,"UreG [1]; UreG + compound 50μM, Temperature 38.23",3.05
same,Normalized fluo,"UreG [1]; UreG + compound 50μM, Temperature 38.61",3.75
same,Normalized fluo,"UreG [1]; UreG + compound 50μM, Temperature 38.99",4.78
same,Normalized fluo,"UreG [1]; UreG + compound 50μM, Temperature 39.38",5.95
same,Normalized fluo,"UreG [1]; UreG + compound 50μM, Temperature 39.76",7.06
same,Normalized fluo,"UreG [1]; UreG + compound 50μM, Temperature 40.14",8.20
same,Normalized fluo,"UreG [1]; UreG + compound 50μM, Temperature 40.52",9.33
same,Normalized fluo,"UreG [1]; UreG + compound 50μM, Temperature 40.91",10.80
same,Normalized fluo,"UreG [1]; UreG + compound 50μM, Temperature 41.29",12.52
same,Normalized fluo,"UreG [1]; UreG + compound 50μM, Temperature 41.66",14.35
same,Normalized fluo,"UreG [1]; UreG + compound 50μM, Temperature 42.04",16.04
same,Normalized fluo,"UreG [1]; UreG + compound 50μM, Temperature 42.42",18.03
same,Normalized fluo,"UreG [1]; UreG + compound 50μM, Temperature 42.81",19.94
same,Normalized fluo,"UreG [1]; UreG + compound 50μM, Temperature 43.18",21.90
same,Normalized fluo,"UreG [1]; UreG + compound 50μM, Temperature 43.56",24.29
same,Normalized fluo,"UreG [1]; UreG + compound 50μM, Temperature 43.94",26.66
same,Normalized fluo,"UreG [1]; UreG + compound 50μM, Temperature 44.33",29.44
same,Normalized fluo,"UreG [1]; UreG + compound 50μM, Temperature 44.71",32.01
same,Normalized fluo,"UreG [1]; UreG + compound 50μM, Temperature 45.09",34.92
same,Normalized fluo,"UreG [1]; UreG + compound 50μM, Temperature 45.47",37.82
same,Normalized fluo,"UreG [1]; UreG + compound 50μM, Temperature 45.85",40.91
same,Normalized fluo,"UreG [1]; UreG + compound 50μM, Temperature 46.23",43.67
same,Normalized fluo,"UreG [1]; UreG + compound 50μM, Temperature 46.60",46.80
same,Normalized fluo,"UreG [1]; UreG + compound 50μM, Temperature 46.99",50.61
same,Normalized fluo,"UreG [1]; UreG + compound 50μM, Temperature 47.37",53.88
same,Normalized fluo,"UreG [1]; UreG + compound 50μM, Temperature 47.75",56.90
same,Normalized fluo,"UreG [1]; UreG + compound 50μM, Temperature 48.13",60.37
same,Normalized fluo,"UreG [1]; UreG + compound 50μM, Temperature 48.52",63.48
same,Normalized fluo,"UreG [1]; UreG + compound 50μM, Temperature 48.89",67.05
same,Normalized fluo,"UreG [1]; UreG + compound 50μM, Temperature 49.28",70.49
same,Normalized fluo,"UreG [1]; UreG + compound 50μM, Temperature 49.65",73.41
same,Normalized fluo,"UreG [1]; UreG + compound 50μM, Temperature 50.04",76.19
same,Normalized fluo,"UreG [1]; UreG + compound 50μM, Temperature 50.42",79.38
same,Normalized fluo,"UreG [1]; UreG + compound 50μM, Temperature 50.80",82.32
same,Normalized fluo,"UreG [1]; UreG + compound 50μM, Temperature 51.19",85.00
same,Normalized fluo,"UreG [1]; UreG + compound 50μM, Temperature 51.56",87.48
same,Normalized fluo,"UreG [1]; UreG + compound 50μM, Temperature 51.96",89.89
same,Normalized fluo,"UreG [1]; UreG + compound 50μM, Temperature 52.34",91.67
same,Normalized fluo,"UreG [1]; UreG + compound 50μM, Temperature 52.72",93.50
same,Normalized fluo,"UreG [1]; UreG + compound 50μM, Temperature 53.10",95.00
same,Normalized fluo,"UreG [1]; UreG + compound 50μM, Temperature 53.48",96.08
same,Normalized fluo,"UreG [1]; UreG + compound 50μM, Temperature 53.86",97.41
same,Normalized fluo,"UreG [1]; UreG + compound 50μM, Temperature 54.24",98.54
same,Normalized fluo,"UreG [1]; UreG + compound 50μM, Temperature 54.62",99.22
same,Normalized fluo,"UreG [1]; UreG + compound 50μM, Temperature 55.00",99.67
same,Normalized fluo,"UreG [1]; UreG + compound 50μM, Temperature 55.38",100.00
same,Normalized fluo,"UreG [1]; UreG + compound 50μM, Temperature 55.77",99.66
same,ΔTm at 50 µM,UreG [1]; read-out: thermal shift on the melting temperature of UreG,~2.5 °C
same,Kd,UreG [2],7.5 ± 3.6 µM
same,fluorescence intensity (a.u.),UreG [2]; log(ligand[μM]) 0,2868.33 a.u.
same,fluorescence intensity (a.u.),UreG [2]; log(ligand[μM]) 0.30103,2606 a.u.
same,fluorescence intensity (a.u.),UreG [2]; log(ligand[μM]) 0.60206,2272 a.u.
same,fluorescence intensity (a.u.),UreG [2]; log(ligand[μM]) 0.90309,1853.67 a.u.
same,fluorescence intensity (a.u.),UreG [2]; log(ligand[μM]) 1.20412,1359.33 a.u.
same,fluorescence intensity (a.u.),UreG [2]; log(ligand[μM]) 1.50515,767.233 a.u.
same,fluorescence intensity (a.u.),UreG [2]; log(ligand[μM]) 1.68124,595.5 a.u.
same,fluorescence intensity (a.u.),UreG [2]; log(ligand[μM]) 1.80618,360.267 a.u.
same,fluorescence intensity (a.u.),UreG [2]; log(ligand[μM]) -0.30103,3140.33 a.u.
same,fluorescence intensity (a.u.),UreG [2]; log(ligand[μM]) -0.60206,3427 a.u.
same,fluorescence intensity (a.u.),UreG [2]; log(ligand[μM]) -1.30103,3670 a.u.
same,absorption at 337 nm,"UreG [3]; [compound]/[UreG] 5, Ni 0 μM",2.14E-04
same,absorption at 337 nm,"UreG [3]; [compound]/[UreG] 5, Ni 1 μM",0.00481
same,absorption at 337 nm,"UreG [3]; [compound]/[UreG] 5, Ni 2 μM",0.0064
same,absorption at 337 nm,"UreG [3]; [compound]/[UreG] 5, Ni 3 μM",0.00838
same,absorption at 337 nm,"UreG [3]; [compound]/[UreG] 5, Ni 4 μM",0.01641
same,absorption at 337 nm,"UreG [3]; [compound]/[UreG] 5, Ni 5 μM",0.0186
same,absorption at 337 nm,"UreG [3]; [compound]/[UreG] 5, Ni 6 μM",0.01908
same,absorption at 337 nm,"UreG [3]; [compound]/[UreG] 5, Ni 7 μM",0.02094
same,absorption at 337 nm,"UreG [3]; [compound]/[UreG] 5, Ni 8 μM",0.0213
same,absorption at 337 nm,"UreG [3]; [compound]/[UreG] 10, Ni 0 μM",0.00131
same,absorption at 337 nm,"UreG [3]; [compound]/[UreG] 10, Ni 1 μM",0.00222
same,absorption at 337 nm,"UreG [3]; [compound]/[UreG] 10, Ni 2 μM",0.00217
same,absorption at 337 nm,"UreG [3]; [compound]/[UreG] 10, Ni 3 μM",0.00973
same,absorption at 337 nm,"UreG [3]; [compound]/[UreG] 10, Ni 4 μM",0.01047
same,absorption at 337 nm,"UreG [3]; [compound]/[UreG] 10, Ni 5 μM",0.01403
same,absorption at 337 nm,"UreG [3]; [compound]/[UreG] 10, Ni 6 μM",0.0146
same,absorption at 337 nm,"UreG [3]; [compound]/[UreG] 10, Ni 7 μM",0.01179
same,absorption at 337 nm,"UreG [3]; [compound]/[UreG] 10, Ni 8 μM",0.01166
same,Normalized cell survival (%),[4],81.1% ± 11.3% and 81.0811%
same,Ammonia in medium (mM),"[4]; H. pylori pre-cultured with 10 μM inhibitor, urea 10 mM, 24 h, Hp alone ca. 2.5 mM",around 1.1 mM
same,Ammonia in medium,"[4]; H. pylori pre-cultured with 10 μM inhibitor, urea 10 mM, 24 h, Hp alone ca. 2.5 mM, listed as cmp8",1.209 mM
same,Ammonia in medium,[5],0.5294 mM
same,Normalized cell survival (%),[5],low viability
same,Normalized cell survival (%),[5]; listed as cmp8,23.4234%
